Measurements as given in patent US12649746B2, “Ketorolaco derivative, pharmaceutical composition and preparation method therefor and use thereof” (NANJING HERON PHARMACEUTICAL SCIENCE AND TECHNOLOGY CO., …, priority 2020, dated 2026).
Blank lines part the entries; values can stand above or below the compound they belong to.

What was measured:
[1] = By-product toxicity test (metabolic byproducts in the human body); details: for Metabolic by-products in human body: by the metabolic pathways of the compounds in the human body; for Toxicity: toxicity of the metabolic by-products in human body
[2] = High temperature stability study of compounds (60° C.); type: physicochemical; details: in the dark; for Ketorolac (%): related substance
Protocol: Test protocol: the compounds prepared in the present disclosure were placed in a colorless and transparent vial, placed in the dark at a high temperature (60° C.), and were sampled for day 0, day 5 and day 10, respectively, and the purity of the compounds and the change of the related substance (ketorolac) were determined.

[3] = Stability study of levorotatory enantiomer of compounds in solvent (MCT); type: physicochemical; details: MCT solution; for Isomer (%): dextrorotatory form
Protocol: 2. Test method: the samples were prepared according to Table 2, wherein each sample was dispensed into 10 vials according to the lofting volume, and the samples were lofted according to Table 3.
4. The related substance was determined according to high performance liquid chromatography (General Chapter 0512, China Pharmacopoeia, 2015 Edition).
(1) Chromatographic conditions: the chromatography column was Agilent ZORBAX SB-C8, 4.6 mm×250 mm, 5 μm, and 0.1% phosphoric acid solution-acetonitrile (50:50) was used as a mobile phase; the detection wavelength was […]; the flow rate was 1.0 mL/min; the column temperature was 40° C., and linear gradient elution was performed according to the following table;
(§1) (2) Determination method: an appropriate amount of the product was weighed precisely, a diluent (absolute ethanol) was added and shaken to dissolve, and quantitatively diluted to give a solution containing 0.4 mg per 1 mL, the solution was […] by vortex for 30 s, and filtered with PTFE filter membrane (0.22 μm, JINTENG), and the filtrate was collected as a test sample solution. 10 μL of the solution was weighed precisely and injected into a liquid chromatograph, and a chromatogram was recorded; if an impurity peak existed in the chromatogram of the test sample solution, calculation was performed according to a peak area normalization method to give the target product.
5. Isomer determination was performed according to high performance liquid chromatography (General Chapter 0512, China Pharmacopoeia, 2015 Edition).
(1) Chromatographic conditions: cellulose-tris(3,5-dimethylphenylcarbamate)silica gel was used as filler (Chiralcel OD-H, 250×4.6 mm, 5 μm); n-hexane-isopropanol (90:10) was used as a mobile phase, and isocratic elution was performed for 25 min at a flow rate of 1.0 mL/min; the column temperature was 35° C.; the detection wavelength was 310 nm.
as §1, with “(n-hexane-isopropanol (90:10))” for “(absolute ethanol)”, “about 1.0” for “0.4”, “20” for “10”, “isomer” for “impurity”

Structure (SMILES): COC(=O)OC(C)OC(=O)C1CCn2c(C(=O)c3ccccc3)ccc21 (stereo not shown) [N13]
Metabolic by-products in human body [1]: Acetaldehyde and methanol | Toxicity [1]: Methanol is more toxic

Structure (SMILES): CCC(=O)OC(C)OC(=O)C1CCn2c(C(=O)c3ccccc3)ccc21 (stereo not shown) [N4]
Total main peak purity (%) ([2]; Day 0): 98.91% | Total main peak purity (%) ([2]; Day 5): 98.38% | Total main peak purity (%) ([2]; Day 10): 98.04% | Ketorolac (%) ([2]; Day 0): 0.12% | Ketorolac (%) ([2]; Day 5): 0.17% | Ketorolac (%) ([2]; Day 10): 0.14% | Metabolic by-products in human body [1]: Acetaldehyde and propionic acid | Toxicity [1]: relatively low

Ketorolac (%) ([3]; 5° C., Day 5): 0.03% | Purity (%) ([3]; 5° C., Day 5): 99.55% | Ketorolac (%) ([3]; 5° C., Day 15): 0.02% | Purity (%) ([3]; 5° C., Day 15): 99.65% | Ketorolac (%) ([3]; 5° C., Day 30): 0.03% | Purity (%) ([3]; 5° C., Day 30): 99.52% | Ketorolac (%) ([3]; 5° C., day 0): 0.02% | Purity (%) ([3]; 5° C., day 0): 99.71% | Ketorolac (%) ([3]; 25° C., Day 5): 0.03% | Purity (%) ([3]; 25° C., Day 5): 99.52% | Ketorolac (%) ([3]; 25° C., Day 15): 0.03% | Purity (%) ([3]; 25° C., Day 15): 99.63% | Ketorolac (%) ([3]; 25° C., Day 30): 0.04% | Purity (%) ([3]; 25° C., Day 30): 99.48% | Ketorolac (%) ([3]; 25° C., day 0): 0.02% | Purity (%) ([3]; 25° C., day 0): 99.71% | Ketorolac (%) ([3]; 60° C., Day 5): 0.05% | Purity (%) ([3]; 60° C., Day 5): 99.52% | Ketorolac (%) ([3]; 60° C., Day 15): 0.12% | Purity (%) ([3]; 60° C., Day 15): 99.51% | Ketorolac (%) ([3]; 60° C., Day 30): 0.24% | Purity (%) ([3]; 60° C., Day 30): 99.27% | Ketorolac (%) ([3]; 60° C., day 0): 0.02% | Purity (%) ([3]; 60° C., day 0): 99.71% | Isomer (%) ([3]; 5° C., Day 5): 2.47% | Isomer (%) ([3]; 5° C., Day 15): 2.6% | Isomer (%) ([3]; 5° C., Day 30): 2.58% | Isomer (%) ([3]; 5° C., day 0): 2.46% | Isomer (%) ([3]; 25° C., Day 5): 2.47% | Isomer (%) ([3]; 25° C., Day 15): 2.6% | Isomer (%) ([3]; 25° C., Day 30): 2.59% | Isomer (%) ([3]; 25° C., day 0): 2.46% | Isomer (%) ([3]; 60° C., Day 5): 2.48% | Isomer (%) ([3]; 60° C., Day 15): 2.61% | Isomer (%) ([3]; 60° C., Day 30): 2.63% | Isomer (%) ([3]; 60° C., day 0): 2.46%
Structure (SMILES): CCC(OC(=O)OC(C)C)OC(=O)[C@H]1CCn2c(C(=O)c3ccccc3)ccc21 (stereo partly drawn) [N16(S)]

Structure (SMILES): CCOC(=O)OC(OC(=O)C1CCn2c(C(=O)c3ccccc3)ccc21)C(C)C (stereo not shown) [N18]
Total main peak purity (%) ([2]; Day 0): 94.25% | Total main peak purity (%) ([2]; Day 5): 92.10% | Total main peak purity (%) ([2]; Day 10): 91.78% | Ketorolac (%) ([2]; Day 0): 0.06% | Ketorolac (%) ([2]; Day 5): 0.18% | Ketorolac (%) ([2]; Day 10): 0.26%

Structure (SMILES): CC(C)OC(=O)OC(OC(=O)C1CCn2c(C(=O)c3ccccc3)ccc21)C(C)C (stereo not shown) [N19]
Total main peak purity (%) ([2]; Day 0): 96.30% | Total main peak purity (%) ([2]; Day 5): 94.61% | Total main peak purity (%) ([2]; Day 10): 94.41% | Ketorolac (%) ([2]; Day 0): 0.07% | Ketorolac (%) ([2]; Day 5): 0.09% | Ketorolac (%) ([2]; Day 10): 0.12%

Ketorolac (%) ([3]; 5° C., Day 5): 0.02% | Purity (%) ([3]; 5° C., Day 5): 99.62% | Ketorolac (%) ([3]; 5° C., Day 15): 0.02% | Purity (%) ([3]; 5° C., Day 15): 99.64% | Ketorolac (%) ([3]; 5° C., Day 30): 0.03% | Purity (%) ([3]; 5° C., Day 30): 99.55% | Ketorolac (%) ([3]; 5° C., day 0): 0.02% | Purity (%) ([3]; 5° C., day 0): 99.65% | Ketorolac (%) ([3]; 25° C., Day 5): 0.03% | Purity (%) ([3]; 25° C., Day 5): 99.59% | Ketorolac (%) ([3]; 25° C., Day 15): 0.04% | Purity (%) ([3]; 25° C., Day 15): 99.61% | Ketorolac (%) ([3]; 25° C., Day 30): 0.07% | Purity (%) ([3]; 25° C., Day 30): 99.49% | Ketorolac (%) ([3]; 25° C., day 0): 0.02% | Purity (%) ([3]; 25° C., day 0): 99.65% | Ketorolac (%) ([3]; 60° C., Day 5): 0.09% | Purity (%) ([3]; 60° C., Day 5): 99.53% | Ketorolac (%) ([3]; 60° C., Day 15): 0.23% | Purity (%) ([3]; 60° C., Day 15): 99.35% | Ketorolac (%) ([3]; 60° C., Day 30): 0.41% | Purity (%) ([3]; 60° C., Day 30): 99.05% | Ketorolac (%) ([3]; 60° C., day 0): 0.02% | Purity (%) ([3]; 60° C., day 0): 99.65% | Isomer (%) ([3]; 5° C., Day 5): 3.05% | Isomer (%) ([3]; 5° C., Day 15): 3.07% | Isomer (%) ([3]; 5° C., Day 30): 3.06% | Isomer (%) ([3]; 5° C., day 0): 3.01% | Isomer (%) ([3]; 25° C., Day 5): 3.04% | Isomer (%) ([3]; 25° C., Day 15): 3.09% | Isomer (%) ([3]; 25° C., Day 30): 3.11% | Isomer (%) ([3]; 25° C., day 0): 3.01% | Isomer (%) ([3]; 60° C., Day 5): 3.12% | Isomer (%) ([3]; 60° C., Day 15): 3.1% | Isomer (%) ([3]; 60° C., Day 30): 3.48% | Isomer (%) ([3]; 60° C., day 0): 3.01%
Structure (SMILES): CCOC(=O)OC(C)OC(=O)[C@H]1CCn2c(C(=O)c3ccccc3)ccc21 (stereo partly drawn) [N12(S)]
